Test results published in patent US6737383B1, “Herbicidal oxadiazolidines” (priority 1999, dated 2004).

Key:
blackgrass = assay: Test B pre/postemergence blackgrass; format: in vivo, Alopecurus myosuroides
Method in brief: (§1)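 Test chemicals in a non-phytotoxic solvent mixture with surfactant were sprayed preemergence onto planted seeds and postemergence onto plants 2 to 18 cm tall (1- to 4-leaf stage). After twelve to sixteen days in a greenhouse, injury was visually rated against untreated controls from 0 (no effect) to 10 (complete control).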

bedstraw = assay: Test B pre/postemergence bedstraw; format: in vivo, Galium aparine
Method in brief: as §1

surinam grass = assay: Test B pre/postemergence surinam grass; format: in vivo, Brachiaria decumbens
Method in brief: as §1

wheat = assay: Test B pre/postemergence wheat; format: in vivo, Triticum aestivum
Method in brief: as §1

morningglory = assay: Test B pre/postemergence morningglory; format: in vivo, Ipomoea hederacea
Method in brief: as §1

crabgrass = assay: Test B pre/postemergence crabgrass; format: in vivo, Digitaria sanguinalis
Method in brief: as §1

rape = assay: Test B pre/postemergence rape; format: in vivo, Brassica napus
Method in brief: as §1

velvetleaf = assay: Test B pre/postemergence velvetleaf; format: in vivo, Abutilon theophrasti
Method in brief: as §1

pigweed = assay: Test B pre/postemergence pigweed; format: in vivo, Amaranthus retroflexus
Method in brief: as §1

purple nutsedge = assay: Test B pre/postemergence purple nutsedge; format: in vivo, Cyperus rotundus
Method in brief: as §1

soybean = assay: Test B pre/postemergence soybean; format: in vivo, Glycine max
Method in brief: as §1

sugar beet = assay: Test B pre/postemergence sugar beet; format: in vivo, Beta vulgaris
Method in brief: as §1

cocklebur = assay: Test B pre/postemergence cocklebur; format: in vivo, Xanthium strumarium
Method in brief: as §1

giant foxtail = assay: Test B pre/postemergence giant foxtail; format: in vivo, Setaria faberii
Method in brief: as §1

corn = assay: Test B pre/postemergence corn; format: in vivo, Zea mays
Method in brief: as §1

wild oat = assay: Test B pre/postemergence wild oat; format: in vivo, Avena fatua
Method in brief: as §1

[1] = Postemergence, Rate 62 g/ha, scale 0 to 10, 0 is no effect, 10 is complete control
[2] = Postemergence, Rate 125 g/ha, scale of 0 to 10 where 0 is no effect and 10 is complete control
[3] = Postemergence, Rate 500 g/ha, scale 0 (no effect) to 10 (complete control)
[4] = Preemergence, Rate 125 g/ha, scale of 0 to 10 where 0 is no effect and 10 is complete control
[5] = Preemergence, Rate 250 g/ha, scale 0 (no effect) to 10 (complete control)
[6] = Rate 62 g/ha, Preemergence, scale 0 to 10
[7] = Rate 250 g/ha, Postemergence, scale 0 to 10, 0 is no effect, 10 is complete control
[8] = Rate 500 g/ha, Preemergence, scale 0 to 10 (0 no effect, 10 complete control)

In the case of `CC(C)N(C(=O)n1oc(=O)n(CCN(C)C(=O)c2ccccc2)c1=O)c1ccc(F)cc1F` [Compound 762], the “Plant response rating, Blackgrass” value (blackgrass; [1]) is reported as 0, the “Blackgrass plant response rating” value (blackgrass; [2]) is reported as 0 and the “Blackgrass plant response rating” value (blackgrass; [3]) is reported as 0. For the same compound, the “Plant response rating, Blackgrass” value (blackgrass; [4]) was 0, the “Blackgrass plant response rating” value (blackgrass; [5]) was 7 and the “Blackgrass plant response rating” value (blackgrass; [6]) was 0. For the same compound, the “Blackgrass plant response rating” value (blackgrass; [7]) was 0, the “Blackgrass plant response rating” value (blackgrass; [8]) was 9 and the “Plant response rating, Bedstraw” value (bedstraw; [1]) was 0. For the same compound, the “Bedstraw plant response rating” value (bedstraw; [2]) was 0, the “Bedstraw plant response rating” value (bedstraw; [3]) was 0 and the “Plant response rating, Bedstraw” value (bedstraw; [4]) was 0. For the same compound, the “Bedstraw plant response rating” value (bedstraw; [5]) was 0, the “Bedstraw plant response rating” value (bedstraw; [6]) was 0 and the “Bedstraw plant response rating” value (bedstraw; [7]) was 0. The “Bedstraw plant response rating” value (bedstraw; [8]) was 0, the “Plant response rating, B. signalgrass” value (surinam grass; [1]) was 0 and the “B. signalgrass plant response rating” value (surinam grass; [2]) was 0. For the same compound, the “B. signalgrass plant response rating” value (surinam grass; Preemergence, Rate 62 g/ha, scale of 0 to 10 where 0 is no effect and 10 is complete control) was 0, the “Plant response rating, B. signalgrass” value (surinam grass; [4]) was 0 and the “B. signalgrass plant response rating” value (surinam grass; [5]) was 6. For the same compound, the “B. signalgrass plant response rating” value (surinam grass; [7]) was 2, the “B. signalgrass plant response rating” value (surinam grass; Rate 500 g/ha, Postemergence, scale 0 to 10, 0 is no effect, 10 is complete control) was 3 and the “B. signalgrass plant response rating” value (surinam grass; [8]) was 9. The “Plant response rating, Wheat” value (wheat; [1]) was 0, the “Wheat plant response rating” value (wheat; [3]) was 0 and the “Plant response rating, Wheat” value (wheat; [4]) was 0. For the same compound, the “Wheat plant response rating” value (wheat; [5]) was 0, the “Wheat plant response rating” value (wheat; [6]) was 0 and the “Wheat plant response rating” value (wheat; [7]) was 0. For the same compound, the “Wheat plant response rating” value (wheat; [8]) was 0, the “Plant response rating, Morningglory” value (morningglory; [1]) was 0 and the “Morningglory plant response rating” value (morningglory; [2]) was 2. For the same compound, the “Morningglory plant response rating” value (morningglory; [3]) was 2, the “Plant response rating, Morningglory” value (morningglory; [4]) was 0 and the “Morningglory plant response rating” value (morningglory; [5]) was 0. For the same compound, the “Morningglory plant response rating” value (morningglory; [6]) was 0, the “Morningglory plant response rating” value (morningglory; [7]) was 2 and the “Morningglory plant response rating” value (morningglory; [8]) was 0. For the same compound, the “Plant response rating, Crabgrass” value (crabgrass; [1]) was 0, the “Crabgrass plant response rating” value (crabgrass; [2]) was 0 and the “Crabgrass plant response rating” value (crabgrass; [3]) was 8. The “Plant response rating, Crabgrass” value (crabgrass; [4]) was 4, the “Crabgrass plant response rating” value (crabgrass; [5]) was 4 and the “Crabgrass plant response rating” value (crabgrass; [7]) was 3. For the same compound, the “Crabgrass plant response rating” value (crabgrass; [8]) was 0, the “Plant response rating, Rape” value (rape; [1]) was 0 and the “Rape plant response rating” value (rape; [3]) was 0. The “Plant response rating, Rape” value (rape; [4]) was 0, the “Rape plant response rating” value (rape; [5]) was 0 and the “Rape plant response rating” value (rape; [6]) was 0. The “Rape plant response rating” value (rape; [7]) was 0, the “Rape plant response rating” value (rape; [8]) was 0 and the “Plant response rating, Velvetleaf” value (velvetleaf; [1]) was 0. For the same compound, the “Velvetleaf plant response rating” value (velvetleaf; [3]) was 3, the “Plant response rating, Velvetleaf” value (velvetleaf; [4]) was 0 and the “Velvetleaf plant response rating” value (velvetleaf; [5]) was 0. The “Velvetleaf plant response rating” value (velvetleaf; [6]) was 0, the “Velvetleaf plant response rating” value (velvetleaf; [7]) was 3 and the “Velvetleaf plant response rating” value (velvetleaf; [8]) was 5. The “Plant response rating, Redroot pigweed” value (pigweed; [1]) was 0, the “Redroot pigweed plant response rating” value (pigweed; [2]) was 0 and the “Redroot pigweed plant response rating” value (pigweed; [3]) was 6. For the same compound, the “Plant response rating, Redroot pigweed” value (pigweed; [4]) was 2, the “Redroot pigweed plant response rating” value (pigweed; [5]) was 3 and the “Redroot pigweed plant response rating” value (pigweed; [6]) was 2. The “Redroot pigweed plant response rating” value (pigweed; [7]) was 6, the “Redroot pigweed plant response rating” value (pigweed; [8]) was 3 and the “Plant response rating, Nutsedge” value (purple nutsedge; [1]) was 0. The “Nutsedge plant response rating” value (purple nutsedge; [2]) was 0, the “Nutsedge plant response rating” value (purple nutsedge; [3]) was 3 and the “Plant response rating, Nutsedge” value (purple nutsedge; [4]) was 0. The “Nutsedge plant response rating” value (purple nutsedge; [5]) was 0, the “Nutsedge plant response rating” value (purple nutsedge; [6]) was 0 and the “Nutsedge plant response rating” value (purple nutsedge; [7]) was 0. The “Nutsedge plant response rating” value (purple nutsedge; [8]) was 6, the “Plant response rating, Soybean” value (soybean; [1]) was 2 and the “Soybean plant response rating” value (soybean; [3]) was 4. The “Plant response rating, Soybean” value (soybean; [4]) was 0, the “Soybean plant response rating” value (soybean; [5]) was 0 and the “Soybean plant response rating” value (soybean; [6]) was 0. For the same compound, the “Soybean plant response rating” value (soybean; [7]) was 4, the “Soybean plant response rating” value (soybean; [8]) was 0 and the “Plant response rating, Sugarbeets” value (sugar beet; [1]) was 0. For the same compound, the “Sugarbeets plant response rating” value (sugar beet; [3]) was 6, the “Plant response rating, Sugarbeets” value (sugar beet; [4]) was 0 and the “Sugarbeets plant response rating” value (sugar beet; [5]) was 4. For the same compound, the “Sugarbeets plant response rating” value (sugar beet; [6]) was 0, the “Sugarbeets plant response rating” value (sugar beet; [7]) was 6 and the “Sugarbeets plant response rating” value (sugar beet; [8]) was 4. For the same compound, the “Plant response rating, Cocklebur” value (cocklebur; [1]) was 0, the “Cocklebur plant response rating” value (cocklebur; [2]) was 0 and the “Cocklebur plant response rating” value (cocklebur; [3]) was 0. The “Plant response rating, Cocklebur” value (cocklebur; [4]) was 0, the “Cocklebur plant response rating” value (cocklebur; [5]) was 0 and the “Cocklebur plant response rating” value (cocklebur; [6]) was 0. The “Cocklebur plant response rating” value (cocklebur; [7]) was 0, the “Cocklebur plant response rating” value (cocklebur; [8]) was 0 and the “Giant foxtail plant response rating” value (giant foxtail; [2]) was 0. The “Plant response rating, Giant foxtail” value (giant foxtail; [4]) was 10, the “Giant foxtail plant response rating” value (giant foxtail; [5]) was 9 and the “Giant foxtail plant response rating” value (giant foxtail; [6]) was 5. For the same compound, the “Giant foxtail plant response rating” value (giant foxtail; [7]) was 8, the “Giant foxtail plant response rating” value (giant foxtail; [8]) was 9 and the “Plant response rating, Corn” value (corn; [1]) was 0. The “Corn plant response rating” value (corn; [2]) was 0, the “Corn plant response rating” value (corn; [3]) was 2 and the “Plant response rating, Corn” value (corn; [4]) was 0. For the same compound, the “Corn plant response rating” value (corn; [5]) was 0, the “Corn plant response rating” value (corn; [6]) was 0 and the “Corn plant response rating” value (corn; [7]) was 2. For the same compound, the “Corn plant response rating” value (corn; [8]) was 0, the “Plant response rating, Wild oats” value (wild oat; [1]) was 0 and the “Wild oats plant response rating” value (wild oat; [3]) was 2. For the same compound, the “Plant response rating, Wild oats” value (wild oat; [4]) was 0, the “Wild oats plant response rating” value (wild oat; [5]) was 0 and the “Wild oats plant response rating” value (wild oat; [6]) was 0. The “Wild oats plant response rating” value (wild oat; [7]) was 0 and the “Wild oats plant response rating” value (wild oat; [8]) was 0.
